Measurements reported in patent US20220142884A1, “TREATMENT OF AGING OR UV-DAMAGED SKIN” (Echo Pharmaceuticals B.V., priority 2019, published 2022).

How the values were obtained:
[1] = system: UV-B induced secretion of interleukin 8 (IL-8); test: UV-B induced secretion of IL-8 in HaCaT cells (ELISA); assay type: cell-based, Human; settings: UV-B as in Example 1, vs stimulated controls, component concentrations (μg/ml) per sample
Description: This assay was conducted on Human Epidermal Keratinocyte cells (HaCaT) and was carried out in triplicates. After reaching the required confluency, the cells were treated with pre-prepared growth medium containing the test component(s) at a final volume of 200 μL/well. Growth medium without test component was used to prepare the blank samples. The cells were incubated for 24 hr. Then, the medium was replaced with PBS (containing the test component) and the cells were subjected to 25 mJ/cm^2 (Table 2) or 12.5 mJ/cm^2 (Table 3) UV-B irradiation. The flux was determined by an external […]. Immediately after irradiation, the PBS was aspirated, and the cells were further incubated with freshly prepared media incubated for 24 hr. at 37° C. with 5% CO2. After incubation, the conditioned medium of the different treatment groups was collected under standardized conditions and centrifuged at 250×g for 5 min to remove particulates. Clear supernatants were frozen at -70° C. until analyses. […] The percentage inhibition was determined by comparing IL-8 levels in the test samples with the IL-8 level in the stimulated controls.

[2] = system: UV-B induced secretion of prostaglandin E2 (PGE2); test: UV-B induced secretion of PGE2 in keratinocyte HaCaT cells (ELISA); assay type: cell-based, Human; settings: component concentrations (μg/ml) per sample
Description: This assay was conducted on Human Epidermal Keratinocyte cells (HaCaT) and was carried out in triplicates. After reaching the required confluency, the cells were treated with pre-prepared growth medium containing the test component(s) at a final volume of 200 μL/well. Growth medium without test component was used to prepare the blank samples. The cells were incubated for 24 hr. Then, the medium was replaced with PBS (containing the test component) and the cells were subjected to 25 mJ/cm^2 (Table 2) or 12.5 mJ/cm^2 (Table 3) UV-B irradiation. The flux was determined by an external […]. Immediately after irradiation, the PBS was aspirated, and the cells were further incubated with freshly prepared media incubated for 24 hr. at 37° C. with 5% CO2. After incubation, the conditioned medium of the different treatment groups was collected under standardized conditions and centrifuged at 250×g for 5 min to remove particulates. Clear supernatants were frozen at -70° C. until analyses. The UVB-induced cytokines secretion of PGE2 was measured by commercial ELISA, according to the manufacturer's instructions. The percentage inhibition was determined by comparing PGE2 levels in the test samples with PGE2 level in the stimulated controls. Example 1 was repeated in HaCaT cells, using the lower UV-B dosage (12.5 mJ/cm^2 flux). In addition, an extra test component was used (docosahexaenoic acid).

collagen production = settings: skin organ cultures, inhibition of PGE2 synthesis; cited from earlier work
[3] = 25 mJ/cm^2 UV-B, 24 hr pre-incubation, vs stimulated controls
[4] = lower UV-B dosage 12.5 mJ/cm^2, vs stimulated controls

## C=C(C)[C@@H]1CCC(C)=C[C@H]1c1c(O)cc(CCCCC)cc1O [Sample 1, Cannabidiol]
[1]
  Inhibition (%) IL-8: −1%
[2]; [3]
  Inhibition (%) PGE2: 0%
[2]; [4]
  Inhibition (%) PGE2: −11%

## C=C(C)[C@@H]1CCC(C)=C[C@H]1c1c(O)cc(CCCCC)cc1O [Sample 2, Cannabidiol]
[1]
  Inhibition (%) IL-8: 3%
[2]; [3]
  Inhibition (%) PGE2: 17%
[2]; [4]
  Inhibition (%) PGE2: −8%

## CC/C=C\C/C=C\C/C=C\C/C=C\C/C=C\CCCC(=O)O [Sample 3, eicosapentaenoic acid]
[1]
  Inhibition (%) IL-8: −6%
[2]; [3]
  Inhibition (%) PGE2: −11%
[2]; [4]
  Inhibition (%) PGE2: −3%

## CC/C=C\C/C=C\C/C=C\C/C=C\C/C=C\CCCC(=O)O [Sample 4, eicosapentaenoic acid]
[1]
  Inhibition (%) IL-8: −16%
[2]; [3]
  Inhibition (%) PGE2: 1%
[2]; [4]
  Inhibition (%) PGE2: 5%

## O=C(O)Cc1ccccc1Nc1c(Cl)cccc1Cl [diclofenac]
Collagen production
  collagen production: enhanced collagen production
